Data set [1] deals with crude extract from E. coli. Briefly: In situ protease assay: TNFα variants in E. coli crude extract, SDS-PAGE and Western blot. Particulars: sequence inserted into loop EF of human TNFα, procedure of Example 2. In kind it is in vitro ADME. How it is done:
In order to test the protease resistance of selected, good binding PADRE analogues, their sequences were inserted by cloning techniques into a loop (loop EF) in human TNFα. Cell-free protein crude extract from E. coli expressing the modified TNFα molecules was prepared and proteolytic cleavage within the PADRE analogue sequences was analysed by SDS-PAGE followed by immunoblotting.
A synthetic cDNA encoding TNF (Y87S) was used as template. Oligonucleotides encoding PADRE or PADRE analogues were inserted into the template between A185 and E186 by PCR (cf. above). Resulting cDNAs were cloned into pET28b+(Novagen) and transformed into E. coli strain HMS 174. For recombinant expression, the resulting E. coli strains were cultured in fermentors in a defined medium at 37° C. Induction of recombinant expression was initiated by the addition of 1 mM of IPTG and temperature was lowered to 25° C. Cultures were harvested at 4, 8 or 24 h post-IPTG induction. TNFα variants were purified to >90% homogeneity by affinity chromatography using a TNFα specific monoclonal antibody as described in Nielsen et al., (2004), J Biol. Chem. 279:33593-33600. The purified TNFα variants were characterized by MALDI-TOF mass spectrometry to verify their identity and integrity.
In Situ Protease Assay: Analysis of the Protease Resistance of TNF-α Variants Using Western Blot
Aliquots (1 ml) of E. coli cell cultures, expressing the various TNF-α variants to be tested, were centrifuged (5000 g/5 min/5° C.) and the culture medium was discarded. Cell pellets were resuspended in 1 ml of 20 mM Bis-Tris, pH 6.0. Cell disruption was achieved by sonication (4×15 sec at an amplitude of 11 μm with 20 sec pauses between each sonication round). The resulting suspensions were centrifuged (20000 g/30 min/8° C.) and the supernatants (crude extracts) were transferred to fresh tubes. Crude extracts were then analysed for protein content using a Bradford protein assay (Biorad). Equivalent amounts of proteins were loaded onto 4-12% NuPAGE gels (Novex). After SDS-PAGE, proteins were transferred onto nitrocellulose membrane by semi-dry blotting. For immunoreaction, incubation with rabbit TNFα antiserum (1 h; dilution 1:10 000) and with horse radish peroxidase-conjugated secondary antibody (Dako P448) were carried out in Tris 50 mM, NaCl 150 mM, EDTA 5 mM, Igepal 0.1%, gelatine 0.5%. Detection was with ECL™ reagents (GE Healthcare).

Another data set deals with HLA DRB1 *0405 (Homo sapiens, UniProt P01903+P01911, A100R/A169T/D86S/F76Y/I96L/K127E/L162R/M171V/N62H/P40V/Q125Y/R42H/S133A/S149N/S66Y/V115G/V209L/W38E). Kind of data set: IC50nM to purified HLA | DRB1 *0405.
The target of a further data set is HLA DRB1 *0701 (Homo sapiens, UniProt P01903+P01911, A100R/A102G/A103Q/D57E/D86V/E43K/F76Y/K127E/L162R/M171V/P40G/Q125H/Q99D/R33Q/R42Y/R54Q/S133A/S66F/T210M/V115G/Y107V/Y59L/Y89S). Briefly: IC50nM to purified HLA | DRB1 *0701.
The next data set has as its target HLA DRB1 *0802 (Homo sapiens, UniProt P01903+P01911, A100R/A103L/A169T/F76Y/H45Y/I96F/K41T/L162R/M171V/P40S/Q125H/Q178H/Q39Y/Q99D/R218S/R42G/S66Y/V115G/W38E). Briefly: IC50nM to purified HLA | DRB1 *0802.
The next data set deals with HLA DRB4 *0101 (Homo sapiens, UniProt P01903+P13762, G164S). Kind of data set: IC50nM to purified HLA | DRB4 *0101.
In another data set the target is HLA DRB1 *1302 (Homo sapiens, UniProt P01903+P01911, A100E/A169T/K41T/L162R/M171V/P40S/Q125H/Q178H/Q39Y/Q99D/R42S/S66N/T262R/V115G/W38E/Y61H). Kind of data set: IC50nM to purified HLA | DRB1 *1302.
A further data set has as its target HLA DRB1 *1501 (Homo sapiens, UniProt P01903+P01911). Kind of data set: IC50nM to purified HLA | DRB1 *1501.
For another data set, the target named is HLA DRB1 *0404 (Homo sapiens, UniProt P01903+P01911, A100R/A169T/F76Y/I96L/K127E/L162R/M171V/N62H/P40V/Q125Y/R42H/S133A/S149N/S66Y/V209L/W38E). Kind of data set: IC50nM to purified HLA | DRB1 *0404.

Where no end group is shown, it is not given here.

Chain of HLA DRB4 *0101 (P01903 26-254 limits assumed): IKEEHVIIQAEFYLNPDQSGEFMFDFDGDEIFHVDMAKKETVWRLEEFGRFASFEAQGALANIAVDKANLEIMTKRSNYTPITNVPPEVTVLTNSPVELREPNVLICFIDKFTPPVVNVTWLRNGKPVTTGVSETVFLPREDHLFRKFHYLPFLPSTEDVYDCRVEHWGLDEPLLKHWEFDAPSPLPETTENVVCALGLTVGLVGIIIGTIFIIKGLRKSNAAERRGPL
Chain of HLA DRB4 *0101 (P13762 whole entry G164S): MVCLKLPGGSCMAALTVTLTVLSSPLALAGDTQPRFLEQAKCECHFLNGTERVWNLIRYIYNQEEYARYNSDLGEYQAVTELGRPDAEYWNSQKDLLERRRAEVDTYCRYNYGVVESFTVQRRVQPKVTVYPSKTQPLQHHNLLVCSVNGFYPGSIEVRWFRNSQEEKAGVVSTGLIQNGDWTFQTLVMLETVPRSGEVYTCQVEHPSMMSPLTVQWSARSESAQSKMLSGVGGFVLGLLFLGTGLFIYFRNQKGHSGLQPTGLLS
Chain of HLA DRB1 *1302 (P01903 26-254 limits assumed, other chains not shown): as the sequence (P01903 26-254 limits assumed) above

As for AAAIFVAAWTLHAAA [SEQ ID NO: 69], the “protease resistance of PADRE analogue sequence” value in data set [1] is recorded as “increased resistance towards proteolytic degradation”. The 50% inhibitory concentration (IC50) was 13 nM on HLA DRB1 *0405; 78 nM at HLA DRB1 *0701; 12 nM at HLA DRB1 *0802; 84 nM at HLA DRB4 *0101; 891 nM at HLA DRB1 *1302; 9.4 nM against HLA DRB1 *1501. This sequence also displayed a half-maximal inhibitory concentration (IC50) at HLA DRB1 *0404 of 3.7 nM.

For the origin of these results see US9789181B2, “PAN-DR binding polypeptides and uses thereof” (Epimmune Inc., priority 2009, dated 2017).
